Measured values published in article PMC6789782, “Safety Pharmacological Evaluation of the Coffee Component, Caffeoylquinic Acid, and Its Metabolites, Using Ex Vivo and In Vitro Profiling Assays” (Pharmaceuticals, 2019).

Legend:
[1] = system: rat hippocampal slices; test: Electrophysiological assay of hippocampal slices, epileptiform discharge (ED) recording; details: ± SEM
Experimental: A hippocampal slice was placed on the multielectrode array (200 μm distant electrodes) to ensure the multi-electrode grid covered the major surface of the slice. […]
ED frequency (in Hz) was determined as follows: raw data were filtered with a Low Pass filter (Butterworth second order filter) set to 20 Hz. ED number was monitored on-line (epileptiform event amplitudes had to be higher than 15 μV to be counted; a dead time of 200 ms was applied for each epileptiform event detected). ED frequency was averaged using 30-s time intervals. Results are presented as mean frequency of ED for the last 2 min of each condition (± SEM).

[2] = system: isolated perfused guinea pig heart; test: Langendorff perfused heart assay
Experimental: After injection of heparin sodium (100 unit/body, AY Pharmaceuticals Co., Ltd.) into the jugular vein, the animals were exsanguinated. […] A stainless-steel cannula was inserted in the aorta, followed by attachment to the Langendorff apparatus (Physio-Tech Co., Ltd., Tokyo, Japan). The attached heart was perfused with KH solution at 37.0 ± 0.2 °C. Before use, the KH solution was aerated by a gas mixture (95%O2 + 5%CO2) for 30 min or longer. The perfusion pressure was maintained at 70 mmHg.
DMSO solutions at 1, 10, and 100 mM were diluted 1000-fold with the KH solution to make test solutions of 1, 10, and 100 μM, respectively. The test solutions were cumulatively applied at a flow rate of 20 mL/min for 10 min with each concentration.
An ECG signal was recorded using electrodes fixed on the ventricular apex (+), and a stainless-steel cannula was inserted in the aorta (−), and LVP was recorded from the balloon catheter placed in the left ventricle. The ECG signals were amplified with an amplifier (DAM50; World Precision Instruments, Inc.) and LVPs were monitored with a Pressure Monitor 4 (Living Systems Instrumentation). Both of the waveforms were recorded with computer software (1000 Hz; iox2 and ecgAUTO3; emka Technologies).
Before measurement, the in-balloon pressure was adjusted so that the diastolic blood pressure would be in the range of 0 to 10 mmHg. The cardiac parameters, such as HR, PR interval, QRS duration, QT interval, QTc interval (Fridericia’s formula: QTc = QT/RR^1/3), LVPSP, left-ventricular end diastolic pressure (LVEDP), and LV dP/dt max, were measured.
Data are expressed as mean (± SD). The measured % changes from the pre-application value were used for analyses. Williams test was carried out between the solvent-control and test compound. Student’s t-test was carried out between the solvent-control and positive-control. […] The data from the solvent control and drug groups were tested by F test for homogeneity of variance. F test was performed at the significance level of 5%. When the variances were homogeneous, Student’s t-test was subsequently performed. When the variances were nonhomogeneous, Welch t-test was selected.

[3] = system: peristaltic movement; parameters: method as in earlier work; details: ref review reports on the Pharmaceuticals and Medical Devices Agency website; cited from earlier work
[4] = cited from earlier work
[5] = system: rat hippocampal slices; test: Electrophysiological assay of hippocampal slices, population spike (PS) recording
Experimental: All animals were housed and used in accordance with the French and European legislations for animal care. Rats (Janvier Labs, Le Genest-Saint-Isle, France) were euthanized by fast decapitation, without prior anesthesia. The brain was quickly removed and soaked in ice-cold oxygenated buffer containing KCl 2 mM, NaH2PO4 1.2 mM, MgCl2 7 mM, CaCl2 0.5 mM, NaHCO3 26 mM, glucose 11 mM, and sucrose 250 mM. […] During the experiments, slices were perfused with oxygenated artificial cerebrospinal fluid at 37 °C at a rate of 3 mL/min. The tested slice numbers were > 2 for 100 µM, > 4 for 10 µM, and > 6 for 1 µM (follow-up study). All experiments were carried out with 3-dimensional multielectrode array (Qwane Biosciences S.A., Lausanne, Switzerland) and data were recorded with a commercially available multielectrode array set-up from MultiChannel Systems (MCS GmbH, Reutlingen, Germany).
A hippocampal slice was placed on the multielectrode array (100 μm distant electrodes). One electrode was chosen to stimulate schaffer collaterals (SC) at the CA1 border. The stimulus in a monopolar biphasic current pulse (−300 μA for 60 μs followed by +300 μA for 60 μs) was applied at 30-s intervals. An Input/Output (I/O) curve was derived before each experiment to determine the stimulation intensity. Basal stimulation intensity was then set to 100 μA higher than the minimal intensity necessary to induce PS in the pyramidal cell layer.
Then, 1 μM bicuculline, the antagonist of GABAA, was applied in the continuous presence of the compound for an additional 40-min. Control bicuculline slices were recorded in parallel and after 50 min of control recording, 1 μM bicuculline was applied for a 40-min period.
Normalized PS AUC was averaged by slices for each experiment carried out in the same conditions. PS AUC (± SEM) is expressed as a function of time. The number of PS oscillations induced at the end of the bicuculline-exposure period was determined for each electrode and averaged by slices. The results are presented as mean of the last 2 min of application. Statistical significance was measured using two-way ANOVA analysis with Sidak’s multiple comparisons test, except for the 100 µM concentration because of its small slice number.

[6] = laboratory background data of drugs, n = 3
[7] = within the existing concentration range of each drug, laboratory background data

Row | SMILES | Lowest concentration indicating statistically significant % change to solvent control, HR [2, 6] | Lowest concentration indicating statistically significant % change to solvent control, LVPSP [2, 6] | Lowest concentration indicating statistically significant % change to solvent control, PR [2, 6] | Lowest concentration indicating statistically significant % change to solvent control, QT [2, 6] | Lowest concentration indicating statistically significant % change to solvent control, QTc [2, 6] | Lowest concentration indicating statistically significant % change to solvent control, QRS [2, 6] | Maximum % change in LV dP/dt max [2, 7] | Lowest concentration indicating statistically significant % change to solvent control, LV dP/dtmax [2, 6] | EfTPC (effective free therapeutic plasma concentration) [4] | also measured
1 | Nc1ccncc1 [4-AP, 4-aminopyridine, reference compound] |  |  |  |  |  |  |  |  |  | ED rate ([1]; 4-AP control slices (4-AP alone)): 0.38 ± 0.02 Hz; ED rate ([1]; follow-up test, 4-AP control slices): 0.38 ± 0.04 Hz
2 | CN(CCOc1ccc(NS(C)(=O)=O)cc1)CCc1ccc(NS(C)(=O)=O)cc1 [Dofetilide] | 0.001 µM | 0.03 µM | 0.01 µM | 0.001 µM | 0.001 µM |  |  |  |  | Maximum % change in QT interval [2, 7]: 33.5%
3 | O=C(O[C@@H]1C[C@@H]2C[C@H]3C[C@H](C1)N2CC3=O)c1c[nH]c2ccccc12 [Dolasetron] | 1 µM | 1 µM | 1 µM |  |  | 3 µM |  |  |  | Lowest concentration indicating statistically significant % change to solvent control, LV dP/dtmax ([2]; Hartley, guinea pig): 1 µM; Lowest concentration indicating statistically significant % change to solvent control, QT ([2]; Hartley, guinea pig): 1 µM; Lowest concentration indicating statistically significant % change to solvent control, QTc ([2]; Hartley, guinea pig): 1 µM; Maximum % change in PR interval [2, 7]: 106.9%
4 | Nc1nnc(-c2cccc(Cl)c2Cl)c(N)n1 [Lamotrigine] |  |  |  |  |  |  |  |  |  | Concentration at which peristaltic movement was reduced [3]: 300 nM
5 | O=C(O)COCCN1CCN([C@H](c2ccccc2)c2ccc(Cl)cc2)CC1 [Levocetirizine] |  |  |  |  |  |  | −21.8% |  |  | 
6 | COc1c(N2C[C@@H]3CCCN[C@@H]3C2)c(F)cc2c(=O)c(C(=O)O)cn(C3CC3)c12 [Moxifloxacin] | 30 µM | 3 µM | 30 µM | 3 µM | 3 µM | 10 µM |  | 100 µM | 10.960 [26] µM | Maximum % change in QT interval [2, 7]: 29.3%
7 | Cc1nccn1CC1CCc2c(c3ccccc3n2C)C1=O (stereo not shown) [Ondansetron] | 1 µM | 1 µM | 10 µM | 1 µM | 1 µM | 10 µM | −47.4% | 1 µM | 1.023 [25] µM | Lowest concentration indicating statistically significant % change to solvent control, LVEDP [2, 6]: 1 µM
8 | C=C[C@H]1C[N@@]2CC[C@H]1C[C@H]2[C@H](O)c1ccnc2ccc(OC)cc12 [Quinine] | 1 µM | 1 µM | 3 µM | 1 µM | 1 µM | 3 µM | −77.3% | 1 µM | 21.577 [25] µM | Lowest concentration indicating statistically significant % change to solvent control, LVEDP [2, 6]: 30 µM
9 | CN1CCc2cc3c(cc2[C@H]1[C@@H]1OC(=O)c2c1ccc1c2OCO1)OCO3 [bicuculline, reference compound] |  |  |  |  |  |  |  |  |  | Additional spike number ([5]; 1 μM alone, single stimulation, control slices): 1.32 ± 0.32; Additional spike number ([5]; follow-up test, 1 μM bicuculline control slices): 1.47 ± 0.18
